In paper PMC7440668, “Nitrogen coordinated import and export of arginine across the yeast vacuolar membrane” (PLoS Genetics, 2020):

Tests used:
Format in all cases: biochemical
Ypq2 [1] = molecular target: T1, Ypq2 (Saccharomyces cerevisiae, UniProt Q06328); experiment: inhibition of Ypq2-dependent […]-Arg uptake into isolated vacuoles, […] min; details: 50 μM 14C-Arg, no ATP; competitor added simultaneously
T1 construct: native full-length protein in isolated intact vacuoles; ypq1-2-3 triple-mutant background subtracted from ypq1-3 double-mutant
T1 sequence (Q06328 1-317): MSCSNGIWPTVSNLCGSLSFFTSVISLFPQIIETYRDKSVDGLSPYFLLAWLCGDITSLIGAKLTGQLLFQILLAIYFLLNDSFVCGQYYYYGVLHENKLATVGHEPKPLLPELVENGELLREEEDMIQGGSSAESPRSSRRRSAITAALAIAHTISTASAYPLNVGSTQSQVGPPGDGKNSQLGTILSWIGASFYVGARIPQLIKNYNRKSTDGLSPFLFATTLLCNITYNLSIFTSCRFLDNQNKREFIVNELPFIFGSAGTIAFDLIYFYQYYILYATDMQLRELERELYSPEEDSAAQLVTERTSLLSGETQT

Ypq2 [2] = molecular target: T1, Ypq2; experiment: as above; details: read-out: % inhibition at 5 mM
Avt1 = molecular target: T2, Avt1 (Saccharomyces cerevisiae, UniProt P47082); experiment: 3H-L-tyrosine uptake into isolated intact vacuoles, wild type versus avt1 deletion; details: 50 μM 3H-tyrosine, 4 mM ATP, 27 °C; needs H+ gradient; labelled compound
T2 construct: native full-length protein in isolated intact vacuoles; wild type versus avt1 deletion mutant
T2 sequence (P47082 1-602): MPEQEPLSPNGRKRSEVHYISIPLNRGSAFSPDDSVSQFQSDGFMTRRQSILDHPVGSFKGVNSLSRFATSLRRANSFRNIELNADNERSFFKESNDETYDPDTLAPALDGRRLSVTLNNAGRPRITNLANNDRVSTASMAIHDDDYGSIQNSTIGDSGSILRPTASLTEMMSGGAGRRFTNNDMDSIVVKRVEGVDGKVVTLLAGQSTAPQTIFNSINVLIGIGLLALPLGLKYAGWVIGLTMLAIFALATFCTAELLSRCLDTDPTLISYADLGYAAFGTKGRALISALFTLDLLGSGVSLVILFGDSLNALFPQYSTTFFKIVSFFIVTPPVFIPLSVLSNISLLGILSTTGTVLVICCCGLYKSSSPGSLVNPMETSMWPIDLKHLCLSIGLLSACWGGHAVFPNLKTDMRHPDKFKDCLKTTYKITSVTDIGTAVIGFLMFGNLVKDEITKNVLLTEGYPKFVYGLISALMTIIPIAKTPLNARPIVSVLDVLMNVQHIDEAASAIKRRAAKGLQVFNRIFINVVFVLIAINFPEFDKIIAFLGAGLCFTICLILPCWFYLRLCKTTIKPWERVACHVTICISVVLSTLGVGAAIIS

Row | Structure (SMILES) | % inhibition at 5 mM (Ypq2 [1]) | other results
1 | N=C(N)NOCC[C@H](N)C(=O)O [Canavanine] | Canavanine, the D-Arg and the L- and D-isomers of His completely inhibited the uptake | 
2 | N=C(N)NCCC[C@@H](N)C(=O)O [D-Arg] | Canavanine, the D-Arg and the L- and D-isomers of His completely inhibited the uptake | 
3 | N[C@H](Cc1c[nH]cn1)C(=O)O [D-isomer of His] | Canavanine, the D-Arg and the L- and D-isomers of His completely inhibited the uptake | 
4 | N[C@@H](Cc1cnc[nH]1)C(=O)O [His] | Canavanine, the D-Arg and the L- and D-isomers of His completely inhibited the uptake | 
5 | NCCCC[C@H](N)C(=O)O [Lys] |  | inhibition at 5000 µM (Ypq2 [2]): ~50%
6 | NCCC[C@H](N)C(=O)O [ornithine] |  | inhibition at 5000 µM (Ypq2 [2]): ~50%
7 | N[C@@H](Cc1ccc(O)cc1)C(=O)O [tyrosine] |  | 3H-L-tyrosine uptake into isolated intact vacuoles, wild type versus avt1 deleti (Avt1): Nor was it detected in vacuoles isolated from the avt1Δ mutant
